Measured values from paper PMC6888615, “A Miniaturized Pump Out Method for Characterizing Molecule Interaction with ABC Transporters” (International Journal of Molecular Sciences, 2019).
Read-outs that look alike come from different tables or passages of the source.

What was measured:
P-gp/BCRP [1] = assay: Caco-2 pump out assay, rhodamine 123 excretion; conditions: for Ratio Kout 96/384 wells, P-gp/BCRP: Kout R123 96-well / 384-well; for decrease of Kout of R123: 50 µM (cyclosporin A, elacridar, TPGS 10 µM; doxorubicin 20 µM);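 for all read-outs here: Caco-2 cells loaded 120 min with 10 µM rhodamine 123, then dye efflux read by fluorescence at 37 °C every 2 min for 1 h, Kout as slope, compared against compound-free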
MRPs [2] = conditions: cited from earlier work
P-gp [3] = conditions: cited from earlier work
BCRP = conditions: cited from earlier work
MRPs [4] = assay: Caco-2 pump out assay, CMFDA excretion; type: cell-based; conditions: for effect on rate out of CMFDA: 50 µM (cyclosporin A 10 µM; doxorubicin 20 µM); for reduction of kout of CMFDA: 50 µM (elacridar 10 µM), p < 0.001
MRPs [5] = tested on: MRPs; parameters: method as in PMID 21415249; conditions: read-out: MRPs IC50 published value; cited from earlier work
[6] = Bidirectional transport (Papp) across Caco-2 monolayers on 24-well inserts, 21 days; conditions: human, Caco-2, pH 7.4
P-gp/BCRP [7] = tested on: P-gp/BCRP;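 note: Caco-2 cells loaded 120 min with 10 µM rhodamine 123, then dye efflux read by fluorescence at 37 °C every 2 min for 1 h, Kout as slope, compared against compound-free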
[8] = tested on: efflux pump activity in Caco-2 cells; assay: b→a permeability of doxorubicin across Caco-2 with efflux pump inhibitors; type: in vitro ADME; conditions: doxorubicin 20 µM; cyclosporin A 10 µM, elacridar 0.5 µM
P-gp [9] = conditions: read-out: P-gp IC50 based on the digoxin ER; cited from earlier work

CN(C)C(=O)CCSC(SCCC(=O)O)c1cccc(C=Cc2ccc3ccc(Cl)cc3n2)c1 (centres unmarked) [MK571, 3-[[3-[2-(7-chloroquinolin-2-yl)vinyl]phenyl]-(2-dimethylcarbamoylethylsulfanyl)methylsulfanyl] propionic acid]
kout Rho 123, mean (P-gp/BCRP [1]): 70.9 ± 10.6 pmol.min^−1.mg^−1 Protein
Transporter interaction, P-gp/BCRP (P-gp/BCRP [1]; 96 wells): + (Interaction with efflux pumps when Kout ≤ 80% of control)
Transporter interaction, P-gp/BCRP (P-gp/BCRP [1]; 384 wells): + (Interaction with efflux pumps when Kout ≤ 80% of control)
Ratio Kout 96/384 wells, P-gp/BCRP (P-gp/BCRP [1]): 1.19
effect on rate out of cell of R123 (P-gp/BCRP [1]; MK571 50 µM, p < 0.001): slight reduction
IC50 (MRPs [2]): 10 µM
IC50 (P-gp [3]): 26 µM
IC50 (BCRP): 50 µM
effect on rate out of CMFDA (MRPs [4]): decreased strongly
Transporter interaction, MRPs (MRPs [4]; 96 wells): + (Interaction with efflux pumps when Kout ≤ 80% of control)
Transporter interaction, MRPs (MRPs [4]; 384 wells): + (Interaction with efflux pumps when Kout ≤ 80% of control)
IC50 (MRPs [4]; read-out: IC50 towards MRPs activity (CMFDA excretion), non-linear regression of pump out assay data): 3.8 µM
IC50 (MRPs [5]): 2.43 µM

COC(=O)c1ccccc1-c1c2ccc(=N)cc-2oc2cc(N)ccc12 [R123, rhodamine 123]
Papp A→B at 1 h [6]: 1.51 ± 0.01 ×10⁻⁶ cm/s
Papp B→A at 1 h [6]: 8.94 ± 0.4 ×10⁻⁶ cm/s
efflux ratio at 1 h, 20 µM [6]: 5.96 ± 0.26

CC(=O)Nc1ccc(O)cc1 [acetanomiphen]
kout Rho 123, mean (P-gp/BCRP [1]): 113.7 ± 12.6 pmol.min^−1.mg^−1 Protein
Ratio Kout 96/384 wells, P-gp/BCRP (P-gp/BCRP [1]): 1.08

O=C(O)Cc1ccccc1Nc1c(Cl)cccc1Cl [diclofenac]
Transporter interaction, MRPs (MRPs [4]; 96 wells): −
Transporter interaction, MRPs (MRPs [4]; 384 wells): −

COc1ccc([C@@H]2Sc3ccccc3N(CCN(C)C)C(=O)[C@@H]2OC(C)=O)cc1 [diltiazem]
Transporter interaction, MRPs (MRPs [4]; 96 wells): −
Transporter interaction, MRPs (MRPs [4]; 384 wells): −

COc1cccc2c1C(=O)c1c(O)c3c(c(O)c1C2=O)C[C@@](O)(C(=O)CO)C[C@@H]3O[C@H]1C[C@H](N)[C@H](O)[C@H](C)O1 [doxorubicin]
decrease of Kout of R123 (P-gp/BCRP [1]; p < 0.001): more than 30%
Ratio Kout 96/384 wells, P-gp/BCRP (P-gp/BCRP [1]): 1.03
Papp A→B at 1 h [6]: 0.36 ± 0.03 ×10⁻⁶ cm/s
Papp B→A at 1 h [6]: 7.6 ± 0.4 ×10⁻⁶ cm/s
efflux ratio at 1 h, 20 µM [6]: 21.9 ± 1.11
Transporter interaction, P-gp/BCRP (P-gp/BCRP [7]; 96 wells): + (Interaction with efflux pumps when Kout ≤ 80% of control)
Transporter interaction, P-gp/BCRP (P-gp/BCRP [7]; 384 wells): + (Interaction with efflux pumps when Kout ≤ 80% of control)
effect on rate out of CMFDA (MRPs [4]): decreased strongly
Transporter interaction, MRPs (MRPs [4]; 96 wells): + (Interaction with efflux pumps when Kout ≤ 80% of control)
Transporter interaction, MRPs (MRPs [4]; 384 wells): −

COc1cc2c(cc1OC)CN(CCc1ccc(NC(=O)c3cccc4c(=O)c5cccc(OC)c5[nH]c34)cc1)CC2 [elacridar]
decrease of Kout of R123 (P-gp/BCRP [1]; p < 0.001): more than 30%
Ratio Kout 96/384 wells, P-gp/BCRP (P-gp/BCRP [1]): 0.81
reduction of b→a permeability of doxorubicin [8]: 25%
Transporter interaction, P-gp/BCRP (P-gp/BCRP [7]; 96 wells): + (Interaction with efflux pumps when Kout ≤ 80% of control)
Transporter interaction, P-gp/BCRP (P-gp/BCRP [7]; 384 wells): + (Interaction with efflux pumps when Kout ≤ 80% of control)
reduction of kout of CMFDA (MRPs [4]): more than 20%
Transporter interaction, MRPs (MRPs [4]; 96 wells): + (Interaction with efflux pumps when Kout ≤ 80% of control)
Transporter interaction, MRPs (MRPs [4]; 384 wells): + (Interaction with efflux pumps when Kout ≤ 80% of control)

CN(C)C(=O)C(CCN1CCC(O)(c2ccc(Cl)cc2)CC1)(c1ccccc1)c1ccccc1 [loperamide]
kout Rho 123, mean (P-gp/BCRP [1]): 42.0 ± 4.9 pmol.min^−1.mg^−1 Protein
decrease of Kout of R123 (P-gp/BCRP [1]; p < 0.001): more than 30%
Transporter interaction, P-gp/BCRP (P-gp/BCRP [1]; 96 wells): + (Interaction with efflux pumps when Kout ≤ 80% of control)
Transporter interaction, P-gp/BCRP (P-gp/BCRP [1]; 384 wells): + (Interaction with efflux pumps when Kout ≤ 80% of control)
Ratio Kout 96/384 wells, P-gp/BCRP (P-gp/BCRP [1]): 1.01
reduction of kout of CMFDA (MRPs [4]): more than 20%
Transporter interaction, MRPs (MRPs [4]; 96 wells): + (Interaction with efflux pumps when Kout ≤ 80% of control)
Transporter interaction, MRPs (MRPs [4]; 384 wells): + (Interaction with efflux pumps when Kout ≤ 80% of control)

OC[C@@H](O)[C@@H](O)[C@H](O)[C@H](O)CO [mannitol, Mannitol D-[1-14C]]
Papp A→B at 1 h [6]: 0.26 ± 0.03 ×10⁻⁶ cm/s
Papp B→A at 1 h [6]: 0.32 ± 0.03 ×10⁻⁶ cm/s

CCC1(c2ccccc2)C(=O)NC(=O)NC1=O [phenobarbital]
kout Rho 123, mean (P-gp/BCRP [1]): 107.1 ± 10.0 pmol.min^−1.mg^−1 Protein
Ratio Kout 96/384 wells, P-gp/BCRP (P-gp/BCRP [1]): 1.09

C=C[C@H]1C[N@@]2CC[C@H]1C[C@@H]2[C@@H](O)c1ccnc2ccc(OC)cc12 [quinidine]
IC50 (P-gp [9]): 4.9 ± 0.9 µM

CO[C@H]1/C=C/O[C@@]2(C)Oc3c(C)c(O)c4c(O)c(c(/C=N/N5CCN(C)CC5)c(O)c4c3C2=O)NC(=O)/C(C)=C\C=C\[C@H](C)[C@H](O)[C@@H](C)[C@@H](O)[C@@H](C)[C@H](OC(C)=O)[C@@H]1C [rifampicin]
decrease of Kout of R123 (P-gp/BCRP [1]; p < 0.001): more than 30%
Ratio Kout 96/384 wells, P-gp/BCRP (P-gp/BCRP [1]): 1.12
Transporter interaction, P-gp/BCRP (P-gp/BCRP [7]; 96 wells): + (Interaction with efflux pumps when Kout ≤ 80% of control)
Transporter interaction, P-gp/BCRP (P-gp/BCRP [7]; 384 wells): + (Interaction with efflux pumps when Kout ≤ 80% of control)
reduction of kout of CMFDA (MRPs [4]): more than 20%

CC[C@]1(O)C[C@@H]2CN(CCc3c([nH]c4ccccc34)[C@@](C(=O)OC)(c3cc4c(cc3OC)N(C)[C@H]3[C@@](O)(C(=O)OC)[C@H](OC(C)=O)[C@]5(CC)C=CCN6CC[C@]43[C@@H]65)C2)C1 [vinblastine]
decrease of Kout of R123 (P-gp/BCRP [1]; p < 0.001): more than 30%
Transporter interaction, P-gp/BCRP (P-gp/BCRP [1]; 96 wells): + (Interaction with efflux pumps when Kout ≤ 80% of control)
Transporter interaction, P-gp/BCRP (P-gp/BCRP [1]; 384 wells): + (Interaction with efflux pumps when Kout ≤ 80% of control)
Ratio Kout 96/384 wells, P-gp/BCRP (P-gp/BCRP [1]): 0.99
reduction of kout of CMFDA (MRPs [4]): more than 20%

D-α-Tocopherol polyethylene glycol 1000 succinate
kout Rho 123, mean (P-gp/BCRP [1]): 33.7 ± 2.7 pmol.min^−1.mg^−1 Protein
decrease of Kout of R123 (P-gp/BCRP [1]; p < 0.001): more than 30%
Transporter interaction, P-gp/BCRP (P-gp/BCRP [1]; 96 wells): + (Interaction with efflux pumps when Kout ≤ 80% of control)
Transporter interaction, P-gp/BCRP (P-gp/BCRP [1]; 384 wells): + (Interaction with efflux pumps when Kout ≤ 80% of control)

Lucifer yellow
Papp of Lucifer yellow (apical-to-basal) (Caco-2 cells): 0.066 ± 0.016 × 10^−6 cm/s
